# Assay results from patent publication US5399577A, “Isoxazole derivatives and salts thereof” (Taiho Pharmaceutical Co., Ltd., priority 1991, dated 1995).
# How the values were obtained:
# cyclooxygenase = experiment: Cyclooxygenase inhibiting effect; type: biochemical; conditions: seminal vasicular gland microsomes, 14C-arachidonic acid, prostaglandin E2 formation
# Procedure: (1) Cyclooxygenase inhibiting effect
# This assay was carried out by the method described in Russell J. Taylor et al., Biochem. Pharmacol., 25, 2479-2484 (1976).
# ^14 C-arachidonic acid was reacted with seminal vasicular gland microsomes and the test drugs at various concentrations over a predetermined period of time and the obtained prostaglandin E2 was separated by thin layer chromatography. The radioactivity of prostaglandin E2 was determined by liquid scintillation counter. The IC50 values were calculated by the comparison with the radioactivity of the control.
# 5-Lipoxygenase = molecular target: T1, 5-Lipoxygenase (Cavia porcellus, UniProt A0A286X958); experiment: 5-Lipoxygenase inhibiting activity; type: biochemical; conditions: cytosol fraction of guinea pig polymorphonuclear leucocytes, 14C-arachidonic acid, 5-hydroxyeicosatetraenoic acid formation
# T1 construct: the polymorphonuclear leucocytes were collected and the cytosol fraction was obtained as an enzyme source; endogenous in cells; host or cells: guinea pig peritoneal polymorphonuclear leucocytes, cytosol fraction
# T1 sequence (A0A286X958 1-674): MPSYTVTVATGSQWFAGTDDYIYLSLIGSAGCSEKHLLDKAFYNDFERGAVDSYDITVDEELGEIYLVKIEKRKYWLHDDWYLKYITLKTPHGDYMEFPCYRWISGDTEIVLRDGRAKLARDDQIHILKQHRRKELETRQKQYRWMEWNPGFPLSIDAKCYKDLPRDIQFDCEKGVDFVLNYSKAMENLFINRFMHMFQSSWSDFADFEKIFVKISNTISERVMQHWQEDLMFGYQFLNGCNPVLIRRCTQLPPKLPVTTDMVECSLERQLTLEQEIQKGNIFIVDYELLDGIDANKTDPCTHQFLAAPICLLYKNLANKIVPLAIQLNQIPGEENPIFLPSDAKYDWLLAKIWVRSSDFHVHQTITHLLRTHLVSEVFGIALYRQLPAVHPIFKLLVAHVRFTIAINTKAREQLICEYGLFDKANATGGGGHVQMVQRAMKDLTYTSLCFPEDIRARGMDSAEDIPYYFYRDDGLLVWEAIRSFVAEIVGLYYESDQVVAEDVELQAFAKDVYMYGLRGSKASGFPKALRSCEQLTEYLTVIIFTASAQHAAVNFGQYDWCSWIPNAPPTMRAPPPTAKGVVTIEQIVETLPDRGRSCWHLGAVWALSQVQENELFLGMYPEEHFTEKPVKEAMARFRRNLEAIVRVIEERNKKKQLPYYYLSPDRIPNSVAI
# Procedure: (2) 5-Lipoxygenase inhibiting activity
# This assay was carried out by the method described in Kenkichi Ochi et al., J. Biol. Chem., 258, 5754-5758 (1983).
# Casein was injected into the abdominal cavity of a guinea pig, and the polymorphonuclear leucocytes were collected and the cytosol fraction was obtained as an enzyme source. ^14 C-arachidonic acid was reacted with the enzyme and the test drug at various concentrations over a predetermined period of time. The obtained 5-hydroxyeicosatetraenoic acid was separated by thin layer chromatography and the radioactivity was determined. The IC^50 values were calculated by the comparison with the radioactivity of the control.
Structure (SMILES),IC50 (cyclooxygenase),IC50 (5-Lipoxygenase)
COc1ccc(-c2noc(CCCC(=O)/C=C/c3cc(C)c(O)c(C)c3)c2-c2ccc(OC)cc2)cc1 [Compound 40],0.24 µM,3.03 µM
COc1ccc(-c2noc(CCNC(=O)/C=C/c3cc(OC)c(O)c(OC)c3)c2-c2ccc(OC)cc2)cc1 [Compound 10],0.1 µM,0.67 µM
COc1ccc(-c2noc(CCCC(=O)/C=C/c3ccc(O)c(O)c3)c2-c2ccc(OC)cc2)cc1 [Compound 38],0.14 µM,0.055 µM
COc1ccc(-c2noc(CNC(=O)/C=C/C=C/c3cc(OC)c(O)c(OC)c3)c2-c2ccc(OC)cc2)cc1 [Compound 16],0.29 µM,0.23 µM
COc1ccc(-c2c(-c3ccc(Cl)cc3)noc2CCNC(=O)/C=C/c2ccc(O)c(O)c2)cc1 [Compound 8],1.5 µM,0.086 µM
O=C(/C=C/c1ccc(O)c(O)c1)NCCc1onc(-c2ccccc2)c1-c1ccccc1 [Compound 6],2.6 µM,0.1 µM
COc1ccc(-c2noc(CCOC(=O)/C=C/c3ccc(O)c(O)c3)c2-c2ccc(OC)cc2)cc1 [Compound 4],0.066 µM,0.062 µM
COc1ccc(-c2noc(CCNC(=S)/C=C/c3ccc(O)c(OC)c3)c2-c2ccc(OC)cc2)cc1 [Compound 48],0.03 µM,0.63 µM
COc1ccc(-c2noc(CCCC(=O)/C=C/c3cc(OC)c(O)c(OC)c3)c2-c2ccc(OC)cc2)cc1 [Compound 39],1.31 µM,0.18 µM

# The remaining lines, values ahead:
IC50 (cyclooxygenase),IC50 (5-Lipoxygenase),Structure (SMILES)
0.1 µM,0.113 µM,COc1ccc(-c2noc(CCNC(=O)/C=C/c3ccc(O)c(O)c3)c2-c2ccc(OC)cc2)cc1 [Compound 5]
0.01 µM,0.05 µM,COc1ccc(-c2noc(CCNC(=O)/C=C/C=C/c3cc(OC)c(O)c(OC)c3)c2-c2ccc(OC)cc2)cc1 [Compound 13]
0.015 µM,0.24 µM,COc1ccc(-c2noc(CCNC(=O)/C=C/C=C/c3ccc(O)c(OC)c3)c2-c2ccc(OC)cc2)cc1 [Compound 12]
0.05 µM,0.11 µM,COc1ccc(-c2noc(CNC(=O)/C=C/C=C/c3ccc(O)c(OC)c3)c2-c2ccc(OC)cc2)cc1 [Compound 15]
2.6 µM,0.11 µM,Cc1ccc(-c2noc(CCNC(=O)/C=C/c3ccc(O)c(O)c3)c2-c2ccc(C)cc2)cc1 [Compound 7]
0.28 µM,0.39 µM,COc1ccc(-c2noc(C(=O)/C=C/C=C/c3ccc(O)c(OC)c3)c2-c2ccc(OC)cc2)cc1 [Compound 46]
< 0.01 µM,0.13 µM,COc1ccc(-c2noc(CCNC(=O)/C=C/C=C/c3c(OC)cc(O)cc3OC)c2-c2ccc(OC)cc2)cc1 [Compound 14]
